Test [1] has as its system T1, 210K ß-glucosidase.
T1 construct: gene 210K BGL; native, purified from digestive fluid; 210 kDa by SDS-PAGE; glycoprotein
Kind of test: 4-methylumbelliferone release, fluorometric; Lineweaver-Burk. The class given is biochemical, Aplysia kurodai. The note with it: 37°C. The source says:
4-methylumbelliferone release, fluorometric; Lineweaver-Burk on 210K ß-glucosidase

Test [2] has as its target T1, 210K ß-glucosidase. Kind of test: inhibition of 4MU-ß-glucoside hydrolysis, fluorometric; Cornish-Bowden. The class given is biochemical, Aplysia kurodai. The note with it: substrate 4MU-ß-glucoside; 37°C; mixed. From the text: inhibition of 4MU-ß-glucoside hydrolysis, fluorometric; Cornish-Bowden on 210K ß-glucosidase
The target in test [3] is T2, 110K ß-glucosidase (Aplysia kurodai, UniProt A0A1V1FXL2).
T2 construct: gene ApBGL; native, purified from digestive fluid; 110 kDa by SDS-PAGE; glycoprotein
The test can be described thus: inhibition of 4MU-ß-glucoside hydrolysis, fluorometric; Lineweaver-Burk. Type of test: biochemical. The settings on record: substrate 4MU-ß-glucoside; 37°C; competitive. From the text:
inhibition of 4MU-ß-glucoside hydrolysis, fluorometric; Lineweaver-Burk on 110K ß-glucosidase

Test [4] relates to T1, 210K ß-glucosidase. Kind of test: cellobiose hydrolysis; Lineweaver-Burk. Type of test: biochemical, Aplysia kurodai. The settings on record: read-out: 210 K; 37°C; printed unit doubtful: the printed Vmax/Km scale implies mM; heading: 210 K.
Test [5] has as its target T2, 110K ß-glucosidase. Kind of test: inhibition of 4MU-ß-glucoside hydrolysis. The class given is biochemical. The settings on record: substrate 4MU-ß-glucoside; compound name doubtful (preceding sentence speaks of conduritol B epoxide).

For orientation: Ki means a measure of affinity in units of concentration, obtained from inhibition or displacement. A low value points to a stronger hold on the target. As usually defined, the % inhibition is how much of the control response was suppressed. Read a high % inhibition as strong suppression.

T2 sequence (A0A1V1FXL2 24-994): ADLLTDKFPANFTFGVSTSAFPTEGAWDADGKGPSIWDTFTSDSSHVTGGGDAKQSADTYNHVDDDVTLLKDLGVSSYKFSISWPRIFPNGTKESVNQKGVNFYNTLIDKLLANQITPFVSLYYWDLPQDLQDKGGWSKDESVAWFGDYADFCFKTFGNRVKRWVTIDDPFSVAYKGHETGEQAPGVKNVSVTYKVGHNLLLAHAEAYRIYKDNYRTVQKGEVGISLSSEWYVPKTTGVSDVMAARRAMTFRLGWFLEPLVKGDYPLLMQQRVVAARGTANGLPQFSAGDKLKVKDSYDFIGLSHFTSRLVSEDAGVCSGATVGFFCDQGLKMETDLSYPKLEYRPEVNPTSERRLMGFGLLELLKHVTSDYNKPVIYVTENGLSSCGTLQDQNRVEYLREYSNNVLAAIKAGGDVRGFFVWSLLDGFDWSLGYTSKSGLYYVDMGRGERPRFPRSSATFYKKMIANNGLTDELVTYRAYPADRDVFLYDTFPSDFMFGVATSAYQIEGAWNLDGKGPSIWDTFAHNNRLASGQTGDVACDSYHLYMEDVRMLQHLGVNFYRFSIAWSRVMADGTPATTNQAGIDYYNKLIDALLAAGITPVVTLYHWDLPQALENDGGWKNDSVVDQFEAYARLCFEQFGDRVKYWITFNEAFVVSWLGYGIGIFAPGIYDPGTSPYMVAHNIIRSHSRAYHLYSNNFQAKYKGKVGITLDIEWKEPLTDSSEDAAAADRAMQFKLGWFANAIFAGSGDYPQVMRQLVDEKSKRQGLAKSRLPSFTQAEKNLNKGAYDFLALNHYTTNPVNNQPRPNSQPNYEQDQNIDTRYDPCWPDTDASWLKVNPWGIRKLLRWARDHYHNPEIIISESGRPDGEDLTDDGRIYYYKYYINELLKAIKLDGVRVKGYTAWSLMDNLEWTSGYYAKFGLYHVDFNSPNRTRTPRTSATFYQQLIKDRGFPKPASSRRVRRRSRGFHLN

For the compound `Cc1cc(=O)oc2cc(O[C@@H]3O[C@H](CO)[C@@H](O)[C@H](O)[C@H]3O)ccc12` [4MU-ß-glucoside], the Km in the test on 210K ß-glucosidase [1] worked out at 105 ± 11 µM. For `O=C1O[C@H](CO)[C@@H](O)[C@H](O)[C@H]1O` [D-glucono-1,5-lactone], the Ki at 210K ß-glucosidase [2] is 8.1 ± 0.2 µM; at 110K ß-glucosidase [3] it was 3.66 ± 0.47 µM. For `OC[C@H]1O[C@@H](O[C@H]2[C@H](O)[C@@H](O)C(O)O[C@@H]2CO)[C@H](O)[C@@H](O)[C@@H]1O` (stereo partly drawn) [cellobiose], in the test with 210K ß-glucosidase [4], the Km amounted to 1.93 ± 0.15 mM. For the compound `Cc1cc(=O)oc2cc(O[C@@H]3O[C@H](CO)[C@H](O)[C@H](O)[C@H]3O)ccc12` [4MU-ß-galactoside], the Km with 210K ß-glucosidase [1] was determined as 199 ± 5 µM. Regarding Conduritol B-sulfate, the “% inhibition at 10 mM” value at 110K ß-glucosidase [5] was determined as 48%.

The values are drawn from publication PMC3675134, “Comprehensive Enzymatic Analysis of the Cellulolytic System in Digestive Fluid of the Sea Hare Aplysia kurodai. Efficient Glucose Release from Sea Lettuce by Synergistic Action of 45 kDa Endoglucanase and 210 kDa ß-Glucosidase” (PLoS ONE, 2013).
